Results reported in US20130131161A1, “METHODS AND COMPOSITIONS FOR CARDIOVASCULAR DISEASES AND CONDITIONS” (priority 2009, published 2013).

Test system: Human umbilical vein endothelial cells (HUVECs)
Experiment: eNOS activity analysis: NO, ONOO− and NO/ONOO− release from HUVECs of 50 genotyped donors in response to LA-419 (Example 2)
Assay type: cell-based
Description: Concurrent measurements of NO and ONOO^− were carried out with tandem electrochemical nanosensors combined into one working unit with a total diameter of 200-500 nm (FIG. 1). Their design was based on previously developed and well-characterized chemically modified carbon-fiber technology (Malinski and Taha, 1992; Lvovich and Scheeline, 1997). Each of the nanosensors was made by depositing a sensing material on the tip of a carbon fiber (length 4-5 μm, diameter 0.2-0.5 μm). The fibers were sealed with nonconductive epoxy and electrically connected to copper wires with conductive silver epoxy. A conductive film of polymeric nickel (II) tetrakis(3-methoxy-4-hydroxyphenyl)porphyrin for the NO-sensor and polymeric film of Mn (III) [2.2]paracyclophanylporphyrin was used for the ONOO^−-sensor.
A module of NO/ONOO^− nanosensors (diameter 1-2 μm) with a platinum wire (0.1 mm) counter electrode and saturated calomel reference electrode (SCE) were applied. Differential pulse voltammetry (DPV) and amperometry were performed with a computer-based Gamry VFP600 multichannel potentiostat. DPV was used to measure the basal NO and ONOO^− concentrations, and amperometry was used to measure changes in NO and ONOO^− concentrations from its basal level with time. The DPV current at the peak potential characteristic for NO oxidation (0.65 V) and ONOO^− reduction (−0.45 V) was directly proportional to the local concentrations of these compounds in the immediate vicinity of the sensor. Linear calibration curves (current vs. concentration) were constructed for each sensor from 10 nM to 3 μM before and after measurements with aliquots of NO and ONOO^− standard solutions, respectively. The detection limit of the sensors was 1.0 nM.
The quantification of each analyte (concentration in nM) was performed using a maximum current from amperograms and standard calibration curves. A reproducibility of measurements with nanosensors is relatively high (between 5-12%). […] The sensors were slowly raised 5±2 μm from the surface of a single endothelial cell. The eNOS agonist, calcium ionophore A23187 (CaI) as well as the different drugs were then added to the surrounding media at the cell surface with a nanoinjector that was also positioned by a computer controlled-micromanipulator.
This example describes the genotype-specific response of the three major eNOS variants to 1 μM and 5 μM concentrations of LA-419. The three major genetic polymorphisms studied were the Glu298Asp variant (E298D or 894G→T) in exon 7 of […], the −786T→C variant in the promoter region, and the intron 4 polymorphism (VNTR). All of these variants have possible effects on the cardiovascular system and endothelial dysfunction. For this study, human umbilical vein endothelial cells (HUVECs) from 50 donors between 18 and 32 years of age were used.
For the analysis several analysis techniques were employed. First, the effect of genotype on NO and ONOO^− release was explored within the different concentrations of LA-419 (control, 1 μM, 5 μM), calculated as the average peak release (nmols/L) of NO, ONOO^−, and NO/ONOO^−. The effect of genotype on the net increase in NO, ONOO^−, and NO/ONOO^− for LA-419 (1 μM and 5 μM) as compared to control was also measured. In addition, an analysis was done on the effect of genotype on the % change in NO, ONOO^−, and NO/ONOO^− production for LA-419 (1 μM and 5 μM), calculated as:
% Change=[(avg. LA-419−avg. control)/(avg. control)]*100
Finally, an evaluation was undertaken concerning the effect of genotype on the production of NO, ONOO^−, and NO/ONOO^− as the fold difference of control for LA-419 (1 μM and 5 μM), calculated as:
Fold Difference=(avg. LA-419)/(avg. control)
Within each calculation technique the results were compared for statistical significance using a non-parametric ANOVA Kruskal-Wallace test or a non-parametric Mann-Whitney U test. Statistical significance was set at a p-value <0.05 in a two-tailed distribution. […]

[1] = (LA-419 5 μM)/(control), T-786C C/C, n=4
[2] = (LA-419 5 μM)/(control), T-786C T/C & C/C, n=27
[3] = (LA-419 5 μM)/(control), T-786C T/C, n=23
[4] = (LA-419 5 μM)/(control), T-786C T/T & T/C, n=45
[5] = (LA-419 5 μM)/(control), T-786C T/T, n=22
[6] = Caucasian, (LA-419 1 μM)/(control), Combination of all G894T + T-786C genotypes but G/G + T/T, n=19
[7] = Caucasian, (LA-419 1 μM)/(control), G894T + T-786C G/G + T/C, n=3
[8] = Caucasian, (LA-419 1 μM)/(control), G894T + T-786C G/G + T/T, n=7
[9] = Caucasian, (LA-419 1 μM)/(control), G894T + T-786C G/T + T/C, n=10
[10] = Caucasian, (LA-419 1 μM)/(control), G894T + T-786C G/T + T/T, n=3
[11] = Caucasian, (LA-419 1 μM)/(control), G894T + T-786C T/T + T/C, n=2
[12] = Caucasian, (LA-419 1 μM)/(control), G894T G/G, n=10
[13] = Caucasian, (LA-419 1 μM)/(control), G894T G/T & T/T, n=16
[14] = Caucasian, (LA-419 1 μM)/(control), G894T G/T, n=13
[15] = Caucasian, (LA-419 1 μM)/(control), G894T T/T, n=3
[16] = Caucasian, (LA-419 1 μM)/(control), Intron 4 b/a & a/a, n=6
[17] = Caucasian, (LA-419 1 μM)/(control), Intron 4 b/a, n=5
[18] = Caucasian, (LA-419 1 μM)/(control), Intron 4 b/b, n=18
[19] = Caucasian, (LA-419 1 μM)/(control), T-786C T/C & C/C, n=16
[20] = Caucasian, (LA-419 1 μM)/(control), T-786C T/C, n=15
[21] = Caucasian, (LA-419 1 μM)/(control), T-786C T/T, n=10
[22] = Caucasian, (LA-419 5 μM)/(control), Combination of all G894T + T-786C genotypes but G/G + T/T, n=19
[23] = Caucasian, (LA-419 5 μM)/(control), G894T + T-786C G/G + T/C, n=3
[24] = Caucasian, (LA-419 5 μM)/(control), G894T + T-786C G/G + T/T, n=7
[25] = Caucasian, (LA-419 5 μM)/(control), G894T + T-786C G/T + T/C, n=10
[26] = Caucasian, (LA-419 5 μM)/(control), G894T + T-786C G/T + T/T, n=3
[27] = Caucasian, (LA-419 5 μM)/(control), G894T + T-786C T/T + T/C, n=2

`CC(=O)SC1COC2C(O[N+](=O)[O-])COC12` (stereo not drawn) [LA-419, S-(6-Nitro-oxi-hexahydro-furo[3,2-b]furan-3-1-il)thioacetate] was tested, and the “Fold difference NO (mean ± sd)” value [1] was 1.12 (0.06), the “Fold difference NO/ONOO− (mean ± sd)” value [1] was 1.42 (0.13) and the “Fold difference ONOO− (mean ± sd)” value [1] was 0.79 (0.08). The “Fold difference NO (mean ± sd)” value [2] was 1.13 (0.07), the “Fold difference NO/ONOO− (mean ± sd)” value [2] was 1.39 (0.13) and the “Fold difference ONOO− (mean ± sd)” value [2] was 0.82 (0.06). For the same molecule, the “Fold difference NO (mean ± sd)” value [3] was 1.14 (0.07), the “Fold difference NO/ONOO− (mean ± sd)” value [3] was 1.39 (0.14) and the “Fold difference ONOO− (mean ± sd)” value [3] was 0.82 (0.06). For the same molecule, the “Fold difference NO (mean ± sd)” value [4] was 1.15 (0.06), the “Fold difference NO/ONOO− (mean ± sd)” value [4] was 1.44 (0.16) and the “Fold difference ONOO− (mean ± sd)” value [4] was 0.81 (0.07). For the same molecule, the “Fold difference NO (mean ± sd)” value [5] was 1.16 (0.06), the “Fold difference NO/ONOO− (mean ± sd)” value [5] was 1.49 (0.18) and the “Fold difference ONOO− (mean ± sd)” value [5] was 0.79 (0.08). The “Fold difference NO (mean ± sd)” value [6] was 1.20 (0.29), the “Fold difference NO/ONOO− (mean ± sd)” value [6] was 1.61 (0.77) and the “Fold difference ONOO− (mean ± sd)” value [6] was 0.81 (0.16). For the same molecule, the “Fold difference NO (mean ± sd)” value [7] was 1.13 (0.03), the “Fold difference NO/ONOO− (mean ± sd)” value [7] was 1.27 (0.04) and the “Fold difference ONOO− (mean ± sd)” value [7] was 0.89 (0.02). For the same molecule, the “Fold difference NO (mean ± sd)” value [8] was 1.25 (0.12), the “Fold difference NO/ONOO− (mean ± sd)” value [8] was 1.63 (0.72) and the “Fold difference ONOO− (mean ± sd)” value [8] was 0.84 (0.22). The “Fold difference NO (mean ± sd)” value [9] was 1.29 (0.37), the “Fold difference NO/ONOO− (mean ± sd)” value [9] was 1.75 (0.91) and the “Fold difference ONOO− (mean ± sd)” value [9] was 0.81 (0.16). The “Fold difference NO (mean ± sd)” value [10] was 1.08 (0.03), the “Fold difference NO/ONOO− (mean ± sd)” value [10] was 1.21 (0.04) and the “Fold difference ONOO− (mean ± sd)” value [10] was 0.90 (0.06). For the same molecule, the “Fold difference NO (mean ± sd)” value [11] was 1.11 (0.36), the “Fold difference NO/ONOO− (mean ± sd)” value [11] was 2.25 (1.17) and the “Fold difference ONOO− (mean ± sd)” value [11] was 0.52 (0.11). The “Fold difference NO (mean ± sd)” value [12] was 1.21 (0.12), the “Fold difference NO/ONOO− (mean ± sd)” value [12] was 1.52 (0.61) and the “Fold difference ONOO− (mean ± sd)” value [12] was 0.86 (0.18). The “Fold difference NO (mean ± sd)” value [13] was 1.21 (0.32), the “Fold difference NO/ONOO− (mean ± sd)” value [13] was 1.68 (0.83) and the “Fold difference ONOO− (mean ± sd)” value [13] was 0.79 (0.17). The “Fold difference NO (mean ± sd)” value [14] was 1.24 (0.33), the “Fold difference NO/ONOO− (mean ± sd)” value [14] was 1.63 (0.82) and the “Fold difference ONOO− (mean ± sd)” value [14] was 0.83 (0.15). For the same molecule, the “Fold difference NO (mean ± sd)” value [15] was 1.08 (0.26), the “Fold difference NO/ONOO− (mean ± sd)” value [15] was 1.90 (1.02) and the “Fold difference ONOO− (mean ± sd)” value [15] was 0.63 (0.19). For the same molecule, the “Fold difference NO (mean ± sd)” value [16] was 1.25 (0.33), the “Fold difference NO/ONOO− (mean ± sd)” value [16] was 1.52 (0.70) and the “Fold difference ONOO− (mean ± sd)” value [16] was 0.86 (0.10). The “Fold difference NO (mean ± sd)” value [17] was 1.28 (0.35), the “Fold difference NO/ONOO− (mean ± sd)” value [17] was 1.58 (0.77) and the “Fold difference ONOO− (mean ± sd)” value [17] was 0.85 (0.12). The “Fold difference NO (mean ± sd)” value [18] was 1.21 (0.25), the “Fold difference NO/ONOO− (mean ± sd)” value [18] was 1.69 (0.80) and the “Fold difference ONOO− (mean ± sd)” value [18] was 0.79 (0.20). For the same molecule, the “Fold difference NO (mean ± sd)” value [19] was 1.22 (0.31), the “Fold difference NO/ONOO− (mean ± sd)” value [19] was 1.69 (0.82) and the “Fold difference ONOO− (mean ± sd)” value [19] was 0.79 (0.17). For the same molecule, the “Fold difference NO (mean ± sd)” value [20] was 1.24 (0.32), the “Fold difference NO/ONOO− (mean ± sd)” value [20] was 1.72 (0.84) and the “Fold difference ONOO− (mean ± sd)” value [20] was 0.79 (0.17). The “Fold difference NO (mean ± sd)” value [21] was 1.20 (0.13), the “Fold difference NO/ONOO− (mean ± sd)” value [21] was 1.50 (0.62) and the “Fold difference ONOO− (mean ± sd)” value [21] was 0.86 (0.18). For the same molecule, the “Fold difference NO (mean ± sd)” value [22] was 1.13 (0.06), the “Fold difference NO/ONOO− (mean ± sd)” value [22] was 1.37 (0.10) and the “Fold difference ONOO− (mean ± sd)” value [22] was 0.83 (0.06). For the same molecule, the “Fold difference NO (mean ± sd)” value [23] was 1.19 (0.02), the “Fold difference NO/ONOO− (mean ± sd)” value [23] was 1.47 (0.08) and the “Fold difference ONOO− (mean ± sd)” value [23] was 0.81 (0.03). For the same molecule, the “Fold difference NO (mean ± sd)” value [24] was 1.19 (0.08), the “Fold difference NO/ONOO− (mean ± sd)” value [24] was 1.47 (0.14) and the “Fold difference ONOO− (mean ± sd)” value [24] was 0.81 (0.04). For the same molecule, the “Fold difference NO (mean ± sd)” value [25] was 1.11 (0.05), the “Fold difference NO/ONOO− (mean ± sd)” value [25] was 1.33 (0.06) and the “Fold difference ONOO− (mean ± sd)” value [25] was 0.84 (0.04). For the same molecule, the “Fold difference NO (mean ± sd)” value [26] was 1.14 (0.06), the “Fold difference NO/ONOO− (mean ± sd)” value [26] was 1.39 (0.14) and the “Fold difference ONOO− (mean ± sd)” value [26] was 0.83 (0.11). The “Fold difference NO (mean ± sd)” value [27] was 1.12 (0.09), the “Fold difference NO/ONOO− (mean ± sd)” value [27] was 1.29 (0.01) and the “Fold difference ONOO− (mean ± sd)” value [27] was 0.87 (0.06). The “Fold difference NO (mean ± sd)” value (Caucasian, (LA-419 5 μM)/(control), G894T G/G, n=10) was 1.19 (0.07).
